Laboratory results taken from ChEMBL document CHEMBL1148870, “Novel inhibitors of VEGF receptors-1 and -2 based on azole-5-carboxamide templates” (Bioorg Med Chem Lett, 2007).

Key:
[1] = target: Epidermal growth factor receptor (Homo sapiens) (UniProt P00533); assay: Inhibition of ErbB1 at 10 uM; parameters: scale not given: the % may be the effect or the level left
[2] = target: T1, Vascular endothelial growth factor receptor 2 (Homo sapiens, UniProt P35968); assay: Inhibition of VEGFR2 assessed as inhibition of phosphorylation in human 293 cells by cell-based ELISA; type: functional, HEK293
T1 sequence (P35968 whole entry): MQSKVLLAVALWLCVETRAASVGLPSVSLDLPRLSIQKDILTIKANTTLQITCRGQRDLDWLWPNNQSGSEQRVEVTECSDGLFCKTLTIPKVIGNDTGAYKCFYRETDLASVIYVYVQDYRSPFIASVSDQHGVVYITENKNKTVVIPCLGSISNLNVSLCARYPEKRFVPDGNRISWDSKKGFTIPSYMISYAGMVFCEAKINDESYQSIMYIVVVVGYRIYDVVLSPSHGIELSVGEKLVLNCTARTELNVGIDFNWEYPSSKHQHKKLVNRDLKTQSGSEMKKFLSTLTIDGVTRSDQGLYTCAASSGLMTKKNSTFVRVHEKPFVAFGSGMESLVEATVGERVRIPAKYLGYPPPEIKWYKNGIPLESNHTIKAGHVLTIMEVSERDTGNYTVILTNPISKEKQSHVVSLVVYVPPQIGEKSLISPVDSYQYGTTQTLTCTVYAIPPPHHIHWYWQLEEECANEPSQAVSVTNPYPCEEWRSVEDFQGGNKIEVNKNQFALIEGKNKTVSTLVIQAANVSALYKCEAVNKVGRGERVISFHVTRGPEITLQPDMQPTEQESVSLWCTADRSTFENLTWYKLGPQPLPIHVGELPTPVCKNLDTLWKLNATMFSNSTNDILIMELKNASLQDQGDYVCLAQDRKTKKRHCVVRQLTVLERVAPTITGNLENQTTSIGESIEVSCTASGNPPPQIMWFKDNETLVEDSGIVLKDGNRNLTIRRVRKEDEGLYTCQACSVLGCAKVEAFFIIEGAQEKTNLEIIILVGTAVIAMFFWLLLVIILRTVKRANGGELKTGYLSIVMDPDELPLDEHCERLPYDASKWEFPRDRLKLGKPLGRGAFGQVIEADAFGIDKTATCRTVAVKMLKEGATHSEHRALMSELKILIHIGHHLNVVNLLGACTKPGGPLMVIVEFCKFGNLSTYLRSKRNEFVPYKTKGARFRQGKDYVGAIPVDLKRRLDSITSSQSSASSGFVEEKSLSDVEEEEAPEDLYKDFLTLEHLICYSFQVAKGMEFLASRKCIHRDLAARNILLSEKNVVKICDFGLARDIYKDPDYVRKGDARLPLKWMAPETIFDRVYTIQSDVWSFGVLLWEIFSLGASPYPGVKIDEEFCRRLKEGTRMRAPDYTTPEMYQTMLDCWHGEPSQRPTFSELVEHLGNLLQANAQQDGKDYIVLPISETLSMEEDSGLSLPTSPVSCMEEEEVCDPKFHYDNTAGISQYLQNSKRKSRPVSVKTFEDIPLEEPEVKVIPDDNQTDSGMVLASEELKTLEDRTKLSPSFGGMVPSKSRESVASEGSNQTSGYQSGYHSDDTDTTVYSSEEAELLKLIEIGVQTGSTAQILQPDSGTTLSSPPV

[3] = target: Insulin-like growth factor 1 receptor (Homo sapiens) (UniProt P08069); assay: Inhibition of IGF1R at 10 uM; parameters: scale not given: the % may be the effect or the level left
Chain of Insulin-like growth factor 1 receptor (Homo sapiens) (P08069 31-736 limits assumed): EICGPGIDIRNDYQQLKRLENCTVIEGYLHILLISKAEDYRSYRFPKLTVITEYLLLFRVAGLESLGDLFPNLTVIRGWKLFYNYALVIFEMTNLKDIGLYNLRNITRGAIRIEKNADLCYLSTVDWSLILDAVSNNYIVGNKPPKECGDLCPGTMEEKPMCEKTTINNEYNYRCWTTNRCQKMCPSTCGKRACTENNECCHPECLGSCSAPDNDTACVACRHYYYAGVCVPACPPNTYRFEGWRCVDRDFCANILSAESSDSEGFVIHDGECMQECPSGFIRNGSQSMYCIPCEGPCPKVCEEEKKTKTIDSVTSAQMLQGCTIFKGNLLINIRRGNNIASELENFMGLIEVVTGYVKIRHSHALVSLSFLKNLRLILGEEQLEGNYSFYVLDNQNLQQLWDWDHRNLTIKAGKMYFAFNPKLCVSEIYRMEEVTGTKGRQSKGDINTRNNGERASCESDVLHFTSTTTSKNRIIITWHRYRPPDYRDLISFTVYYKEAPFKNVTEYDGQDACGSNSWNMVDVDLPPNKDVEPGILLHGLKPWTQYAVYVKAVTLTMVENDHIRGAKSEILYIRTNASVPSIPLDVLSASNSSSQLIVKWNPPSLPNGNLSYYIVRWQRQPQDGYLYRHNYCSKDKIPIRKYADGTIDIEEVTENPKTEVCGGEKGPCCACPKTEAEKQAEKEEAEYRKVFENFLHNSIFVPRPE
Chain of Insulin-like growth factor 1 receptor (Homo sapiens) (P08069 741-1367 limits assumed): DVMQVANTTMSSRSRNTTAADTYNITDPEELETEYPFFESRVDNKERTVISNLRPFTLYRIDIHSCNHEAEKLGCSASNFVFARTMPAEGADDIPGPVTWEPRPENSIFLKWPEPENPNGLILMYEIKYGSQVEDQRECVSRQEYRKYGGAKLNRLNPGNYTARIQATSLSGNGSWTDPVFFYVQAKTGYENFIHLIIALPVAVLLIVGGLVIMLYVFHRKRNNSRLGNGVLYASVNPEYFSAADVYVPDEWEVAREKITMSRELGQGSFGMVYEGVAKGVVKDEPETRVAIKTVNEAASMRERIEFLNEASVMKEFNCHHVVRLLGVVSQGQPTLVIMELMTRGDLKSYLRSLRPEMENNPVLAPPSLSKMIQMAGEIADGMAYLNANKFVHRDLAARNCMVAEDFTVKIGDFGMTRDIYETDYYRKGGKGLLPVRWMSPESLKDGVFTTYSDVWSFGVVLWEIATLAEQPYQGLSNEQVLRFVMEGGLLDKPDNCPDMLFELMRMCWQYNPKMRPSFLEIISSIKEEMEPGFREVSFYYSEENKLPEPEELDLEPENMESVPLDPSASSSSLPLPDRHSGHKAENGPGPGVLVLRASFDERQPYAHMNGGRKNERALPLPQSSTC

[4] = target: Receptor tyrosine-protein kinase erbB-2 (Homo sapiens) (UniProt P04626); assay: Inhibition of ErbB2/Her2 at 10 uM; parameters: scale not given: the % may be the effect or the level left
Chain of Receptor tyrosine-protein kinase erbB-2 (Homo sapiens) (P04626 whole entry): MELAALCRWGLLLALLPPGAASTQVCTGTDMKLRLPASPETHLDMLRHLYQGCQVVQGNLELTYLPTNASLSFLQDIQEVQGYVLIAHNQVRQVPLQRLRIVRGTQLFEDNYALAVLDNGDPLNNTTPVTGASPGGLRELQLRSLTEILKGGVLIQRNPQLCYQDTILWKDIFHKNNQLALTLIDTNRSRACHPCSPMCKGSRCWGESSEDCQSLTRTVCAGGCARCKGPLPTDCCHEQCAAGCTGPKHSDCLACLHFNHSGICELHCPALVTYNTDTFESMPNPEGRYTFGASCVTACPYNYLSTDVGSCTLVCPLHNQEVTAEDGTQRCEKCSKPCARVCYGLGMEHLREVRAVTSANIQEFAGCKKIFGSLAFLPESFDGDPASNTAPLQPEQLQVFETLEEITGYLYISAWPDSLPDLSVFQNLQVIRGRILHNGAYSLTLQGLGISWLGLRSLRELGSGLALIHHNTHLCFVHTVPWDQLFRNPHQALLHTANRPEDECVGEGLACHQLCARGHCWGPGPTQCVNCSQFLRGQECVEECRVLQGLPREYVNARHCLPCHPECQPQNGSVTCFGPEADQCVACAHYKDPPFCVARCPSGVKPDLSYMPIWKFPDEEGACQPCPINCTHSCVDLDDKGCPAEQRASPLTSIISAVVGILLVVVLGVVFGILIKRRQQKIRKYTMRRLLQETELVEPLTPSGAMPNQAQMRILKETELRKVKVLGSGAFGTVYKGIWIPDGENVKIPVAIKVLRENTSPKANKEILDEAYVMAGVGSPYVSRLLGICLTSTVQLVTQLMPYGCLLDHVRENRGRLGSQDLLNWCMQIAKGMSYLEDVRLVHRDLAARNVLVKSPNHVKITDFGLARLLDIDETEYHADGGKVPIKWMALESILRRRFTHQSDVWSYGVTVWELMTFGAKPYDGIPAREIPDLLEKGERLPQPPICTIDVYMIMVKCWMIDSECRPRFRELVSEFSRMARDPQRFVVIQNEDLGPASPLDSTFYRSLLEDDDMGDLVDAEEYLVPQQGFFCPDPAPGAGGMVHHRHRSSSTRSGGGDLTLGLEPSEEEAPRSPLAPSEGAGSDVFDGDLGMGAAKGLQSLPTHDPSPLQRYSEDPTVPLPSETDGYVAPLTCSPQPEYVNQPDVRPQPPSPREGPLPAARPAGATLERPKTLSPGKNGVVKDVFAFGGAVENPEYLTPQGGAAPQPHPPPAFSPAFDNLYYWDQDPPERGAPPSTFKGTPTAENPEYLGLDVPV

Homo sapiens [5] = species: Homo sapiens; assay: Inhibition of PKA at 10 uM; parameters: scale not given: the % may be the effect or the level left
[6] = target: RAC-alpha serine/threonine-protein kinase (Homo sapiens) (UniProt P31749); assay: Inhibition of PKB/Akt at 10 uM; parameters: scale not given: the % may be the effect or the level left
[7] = target: Vascular endothelial growth factor receptor 1 (Homo sapiens, UniProt P17948); assay: Inhibition of VEGFR1 assessed as inhibition of phosphorylation in presence of 2 uM ATP by HTRF assay; type: functional
[8] = target: Hepatocyte growth factor receptor (Homo sapiens) (UniProt P08581); assay: Inhibition of cMet at 10 uM; parameters: scale not given: the % may be the effect or the level left
[9] = target: Receptor-type tyrosine-protein kinase FLT3 (Homo sapiens) (UniProt P36888); assay: Inhibition of Flt3 at 10 uM; parameters: scale not given: the % may be the effect or the level left
Chain of Receptor-type tyrosine-protein kinase FLT3 (Homo sapiens) (P36888 whole entry): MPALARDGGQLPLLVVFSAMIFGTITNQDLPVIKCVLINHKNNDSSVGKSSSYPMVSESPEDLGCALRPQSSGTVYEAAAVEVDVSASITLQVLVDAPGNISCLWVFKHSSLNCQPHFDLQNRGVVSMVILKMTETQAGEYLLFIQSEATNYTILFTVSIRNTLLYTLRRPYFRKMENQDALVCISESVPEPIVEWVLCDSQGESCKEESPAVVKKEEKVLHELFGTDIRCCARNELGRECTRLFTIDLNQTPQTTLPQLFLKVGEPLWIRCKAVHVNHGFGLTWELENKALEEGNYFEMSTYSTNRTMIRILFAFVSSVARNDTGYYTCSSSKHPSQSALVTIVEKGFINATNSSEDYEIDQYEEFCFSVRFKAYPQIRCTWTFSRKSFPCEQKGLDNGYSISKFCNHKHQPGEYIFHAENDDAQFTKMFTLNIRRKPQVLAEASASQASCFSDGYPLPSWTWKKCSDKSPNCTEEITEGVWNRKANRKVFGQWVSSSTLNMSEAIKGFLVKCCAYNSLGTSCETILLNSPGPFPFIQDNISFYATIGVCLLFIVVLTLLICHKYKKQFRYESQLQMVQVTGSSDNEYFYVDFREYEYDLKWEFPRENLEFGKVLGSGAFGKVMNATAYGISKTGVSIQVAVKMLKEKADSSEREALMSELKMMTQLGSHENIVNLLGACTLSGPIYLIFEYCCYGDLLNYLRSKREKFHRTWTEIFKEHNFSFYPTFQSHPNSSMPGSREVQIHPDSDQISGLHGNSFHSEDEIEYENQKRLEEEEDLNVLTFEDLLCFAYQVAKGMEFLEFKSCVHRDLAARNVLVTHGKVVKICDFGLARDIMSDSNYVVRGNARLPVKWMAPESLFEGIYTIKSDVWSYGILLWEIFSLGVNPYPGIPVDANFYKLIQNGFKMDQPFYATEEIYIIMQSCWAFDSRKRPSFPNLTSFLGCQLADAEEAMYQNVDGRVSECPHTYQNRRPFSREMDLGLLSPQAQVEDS

Homo sapiens [10] = species: Homo sapiens; assay: Inhibition of Cdk1 at 10 uM; parameters: scale not given: the % may be the effect or the level left
[11] = target: Glycogen synthase kinase-3 beta (Homo sapiens) (UniProt P49841); assay: Inhibition of GSK3-beta at 10 uM; parameters: scale not given: the % may be the effect or the level left
[12] = target: Cyclin-dependent kinase 2 (Homo sapiens) (UniProt P24941); assay: Inhibition of Cdk2 at 10 uM; parameters: scale not given: the % may be the effect or the level left
Homo sapiens [13] = species: Homo sapiens; assay: Inhibition of InR at 10 uM; parameters: scale not given: the % may be the effect or the level left
[14] = target: T1, Vascular endothelial growth factor receptor 2; assay: Inhibition of VEGFR2 assessed as inhibition of phosphorylation in presence of 2 uM ATP by HTRF assay; type: functional
[15] = target: Fibroblast growth factor receptor 1 (Homo sapiens) (UniProt P11362); assay: Inhibition of FGFR1 at 10 uM; parameters: scale not given: the % may be the effect or the level left
Homo sapiens [16] = species: Homo sapiens; assay: Inhibition of bcr-Abl at 10 uM; parameters: scale not given: the % may be the effect or the level left
[17] = target: RAF proto-oncogene serine/threonine-protein kinase (Homo sapiens) (UniProt P04049); assay: Inhibition of Raf1 at 10 uM; parameters: scale not given: the % may be the effect or the level left
[18] = target: Vascular endothelial growth factor receptor 3 (Homo sapiens) (UniProt P35916); assay: Inhibition of Flt4 at 10 uM; parameters: scale not given: the % may be the effect or the level left

Q: What does the source list for `O=C(Nc1ccc(C(F)(F)F)cc1)c1nnnn1CCc1ccncc1`?
A: Activity [1]: < 30%; IC50 [2]: 2960 nM; Activity [3]: > 30%; Activity [4]: > 30%; Activity (Homo sapiens [5]): > 30%; Activity [6]: > 30%; IC50 [7]: 1.08 µM; Activity [8]: > 30%; Activity [9]: > 30%; Activity (Homo sapiens [10]): > 30%; Activity [11]: > 30%; Activity [12]: > 30%; Activity (Homo sapiens [13]): > 30%; IC50 [14]: 850 nM; Activity [15]: > 30%; Activity (Homo sapiens [16]): > 30%; Activity [17]: > 30%; Activity [18]: > 30%

Q: Which Activity [1] does the source give for `O=C(Nc1ccc(Cl)cc1)c1nnnn1CCc1ccncc1` here?
A: < 30%

Q: What about the IC50 [2] of the same compound?
A: 2030 nM

Q: What about the Activity [3] of the same compound?
A: > 30%

Q: And the Activity [4]?
A: > 30%

Q: What about the Activity (Homo sapiens [5]) of the same compound?
A: > 30%

Q: And the Activity [6]?
A: > 30%

Q: And the IC50 [7]?
A: 0.89 µM

Q: And the Activity [8]?
A: > 30%

Q: And the Activity [9]?
A: > 30%

Q: What about the Activity (Homo sapiens [10]) of the same compound?
A: > 30%

Q: What about the Activity [11] of the same compound?
A: > 30%

Q: And the Activity [12]?
A: > 30%

Q: What about the Activity (Homo sapiens [13]) of the same compound?
A: > 30%

Q: And the IC50 [14]?
A: 640 nM

Q: And the Activity [15]?
A: > 30%

Q: What about the Activity (Homo sapiens [16]) of the same compound?
A: > 30%

Q: What about the Activity [17] of the same compound?
A: > 30%

Q: And the Activity [18]?
A: > 30%

Q: Which Activity [1] does the source give for `Cc1nn(CCc2ccncc2)c(C(=O)Nc2ccc(Cl)cc2)c1C` here?
A: < 30%

Q: And the IC50 [2]?
A: > 10000 nM

Q: What about the Activity [3] of the same compound?
A: > 30%

Q: What about the Activity [4] of the same compound?
A: > 30%

Q: What about the Activity (Homo sapiens [5]) of the same compound?
A: > 30%

Q: And the Activity [6]?
A: > 30%

Q: And the IC50 [7]?
A: > 10 µM

Q: And the Activity [8]?
A: > 30%

Q: And the Activity [9]?
A: > 30%

Q: What about the Activity (Homo sapiens [10]) of the same compound?
A: > 30%

Q: And the Activity [11]?
A: > 30%

Q: What about the Activity [12] of the same compound?
A: > 30%

Q: What about the Activity (Homo sapiens [13]) of the same compound?
A: > 30%

Q: And the IC50 [14]?
A: > 10000 nM

Q: And the Activity [15]?
A: > 30%

Q: And the Activity (Homo sapiens [16])?
A: > 30%

Q: And the Activity [17]?
A: > 30%

Q: And the Activity [18]?
A: > 30%

Q: `O=C(Nc1ccc(Cl)c(Cl)c1)c1ccnn1CCc1ccncc1` was tested. Which Activity [1] did it give?
A: < 30%

Q: And the IC50 [2]?
A: 120 nM

Q: What about the Activity [3] of the same compound?
A: > 30%

Q: What about the Activity [4] of the same compound?
A: > 30%

Q: And the Activity (Homo sapiens [5])?
A: > 30%

Q: What about the Activity [6] of the same compound?
A: > 30%

Q: And the IC50 [7]?
A: 0.86 µM

Q: And the Activity [8]?
A: > 30%

Q: And the Activity [9]?
A: > 30%

Q: What about the Activity (Homo sapiens [10]) of the same compound?
A: > 30%

Q: What about the Activity [11] of the same compound?
A: > 30%

Q: What about the Activity [12] of the same compound?
A: > 30%

Q: What about the Activity (Homo sapiens [13]) of the same compound?
A: > 30%

Q: What about the IC50 [14] of the same compound?
A: 260 nM

Q: What about the Activity [15] of the same compound?
A: > 30%

Q: What about the Activity (Homo sapiens [16]) of the same compound?
A: > 30%

Q: What about the Activity [17] of the same compound?
A: > 30%

Q: And the Activity [18]?
A: > 30%

Q: Which Activity [1] does the source give for `O=C(Nc1ccc(Oc2ccccc2)cc1)c1ccnn1CCc1ccncc1` here?
A: < 30%

Q: And the IC50 [2]?
A: > 10000 nM

Q: And the Activity [3]?
A: > 30%

Q: And the Activity [4]?
A: > 30%

Q: What about the Activity (Homo sapiens [5]) of the same compound?
A: > 30%

Q: What about the Activity [6] of the same compound?
A: > 30%

Q: And the IC50 [7]?
A: 5.25 µM

Q: And the Activity [8]?
A: > 30%

Q: And the Activity [9]?
A: > 30%

Q: What about the Activity (Homo sapiens [10]) of the same compound?
A: > 30%

Q: What about the Activity [11] of the same compound?
A: > 30%

Q: What about the Activity [12] of the same compound?
A: > 30%

Q: And the Activity (Homo sapiens [13])?
A: > 30%

Q: What about the IC50 [14] of the same compound?
A: 3220 nM

Q: And the Activity [15]?
A: > 30%

Q: What about the Activity (Homo sapiens [16]) of the same compound?
A: > 30%

Q: What about the Activity [17] of the same compound?
A: > 30%

Q: And the Activity [18]?
A: > 30%

Q: What does the source list for `O=C(Nc1ccc(OC(F)(F)F)cc1)c1cc2ccccc2n1CCc1ccncc1`?
A: Activity [1]: < 30%; IC50 [2]: > 10000 nM; Activity [3]: > 30%; Activity [4]: > 30%; Activity (Homo sapiens [5]): > 30%; Activity [6]: > 30%; IC50 [7]: > 10 µM; Activity [8]: > 30%; Activity [9]: > 30%; Activity (Homo sapiens [10]): > 30%; Activity [11]: > 30%; Activity [12]: > 30%; Activity (Homo sapiens [13]): > 30%; IC50 [14]: > 10000 nM; Activity [15]: > 30%; Activity (Homo sapiens [16]): > 30%; Activity [17]: > 30%; Activity [18]: > 30%

Q: What does the source list for `CC(C)(C)c1ccc(NC(=O)c2nnnn2CCc2ccncc2)cc1`?
A: Activity [1]: < 30%; IC50 [2]: > 10000 nM; Activity [3]: > 30%; Activity [4]: > 30%; Activity (Homo sapiens [5]): > 30%; Activity [6]: > 30%; IC50 [7]: > 10 µM; Activity [8]: > 30%; Activity [9]: > 30%; Activity (Homo sapiens [10]): > 30%; Activity [11]: > 30%; Activity [12]: > 30%; Activity (Homo sapiens [13]): > 30%; IC50 [14]: > 10000 nM; Activity [15]: > 30%; Activity (Homo sapiens [16]): > 30%; Activity [17]: > 30%; Activity [18]: > 30%

Q: `O=C(Nc1ccc(OC(F)(F)F)cc1)c1nnnn1CCc1ccncc1` was tested. Which Activity [1] did it give?
A: < 30%

Q: What about the IC50 [2] of the same compound?
A: 2970 nM

Q: And the Activity [3]?
A: > 30%

Q: And the Activity [4]?
A: > 30%

Q: And the Activity (Homo sapiens [5])?
A: > 30%

Q: And the Activity [6]?
A: > 30%

Q: And the IC50 [7]?
A: 3.88 µM

Q: What about the Activity [8] of the same compound?
A: > 30%

Q: And the Activity [9]?
A: > 30%

Q: And the Activity (Homo sapiens [10])?
A: > 30%

Q: And the Activity [11]?
A: > 30%

Q: What about the Activity [12] of the same compound?
A: > 30%

Q: And the Activity (Homo sapiens [13])?
A: > 30%

Q: What about the IC50 [14] of the same compound?
A: 2650 nM

Q: And the Activity [15]?
A: > 30%

Q: What about the Activity (Homo sapiens [16]) of the same compound?
A: > 30%

Q: And the Activity [17]?
A: > 30%

Q: And the Activity [18]?
A: > 30%
